pEC50: −log10 of the molar value.
Test system: primary human T-cells
Experiment: Proliferation assay (5 days, CellTiter-Glo, CD3-stimulated T-cells)
Assay type: cell-based
Settings: for Emax proliferation (% activation): CD3 condition, normalised to DMSO (neutral) and 20 μM reference compound A1 = 100%; for pEC50: Homo sapiens, T-cell, 120 h, CD3-stimulated primary human T-cells, 5 days, CellTiter-Glo, fitted sigmoidal curve, read-out: Tcell Proliferation CD3 EC50
Outline: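 Proliferation read-out: ATP luminescence (CellTiter-Glo 2.0) at day 5 in expanded primary human T-cells on CD3 antibody-coated plates, with PBS-only plates as a counter screen. Compounds in 5–6 pt series (factor 3.333, top 20 or 10 μM final). Values are normalized to DMSO (neutral) and 20 μM reference A1 (100%), from sigmoidal fits.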

Row | Compound | Emax proliferation (% activation) | pEC50
1 | CC1(Nc2nnc(-c3cc4c(cc3F)S(=O)(=O)C[C@H](N)C(=O)N4Cc3ccc(-c4noc(C(F)(F)F)n4)cc3)o2)CC(F)(F)C1 [Example 3, (3R)-3-amino-7-[5-[(3,3-difluoro-1-methyl-cyclobutyl)amino]-1,3,4-oxadiazol-2-yl]-8-fluoro-1,1-dioxo-5-[[4-[5-(trifluoromethyl)-1,2,4-oxadiazol-3-yl]phenyl]methyl]-2,3-dihydro-1λ^6,5-benzothiazepin-4-one] | 165 | 6.10
2 | N[C@H]1CS(=O)(=O)c2cc(F)c(-c3nnc(N4CCOC5(CC5)C4)o3)cc2N(Cc2ccc(-c3noc(C(F)(F)F)n3)cc2)C1=O [Example 4, (3R)-3-amino-8-fluoro-7-[5-(4-oxa-7-azaspiro[2.5]octan-7-yl)-1,3,4-oxadiazol-2-yl]-1,1-dioxo-5-[[4-[5-(trifluoromethyl)-1,2,4-oxadiazol-3-yl]phenyl]methyl]-2,3-dihydro-1λ^6,5-benzothiazepin-4-one] | 207 | 7.08
3 | N[C@H]1CS(=O)(=O)c2cc(F)c(-c3nnc(N4CCC(F)(F)CC4)o3)cc2N(Cc2ccc(-c3noc(C(F)(F)F)n3)cc2)C1=O [Example 5, (3R)-3-amino-7-[5-(4,4-difluoro-1-piperidyl)-1,3,4-oxadiazol-2-yl]-8-fluoro-1,1-dioxo-5-[[4-[5-(trifluoromethyl)-1,2,4-oxadiazol-3-yl]phenyl]methyl]-2,3-dihydro-1λ^6,5-benzothiazepin-4-one] | 200 | 6.92
4 | COc1ccc(-c2ccc(CN3C(=O)[C@@H](N)CS(=O)(=O)c4cc(F)c(-c5noc(C6(N)COC6)n5)cc43)cc2)cc1 [Example 8, (3R)-3-amino-7-[5-(3-aminooxetan-3-yl)-1,2,4-oxadiazol-3-yl]-8-fluoro-5-[[4-(4-methoxyphenyl)phenyl]methyl]-1,1-dioxo-2,3-dihydro-1λ^6,5-benzothiazepin-4-one] | 143 | 5.51
5 | N[C@H]1CS(=O)(=O)c2cc(F)c(-c3noc(C4(N)COC4)n3)cc2N(Cc2ccc(-c3noc(C(F)(F)F)n3)cc2)C1=O [Example 9, (3R)-3-amino-7-[5-(3-aminooxetan-3-yl)-1,2,4-oxadiazol-3-yl]-8-fluoro-1,1-dioxo-5-[[4-[5-(trifluoromethyl)-1,2,4-oxadiazol-3-yl]phenyl]methyl]-2,3-dihydro-1λ^6,5-benzothiazepin-4-one] | 163 | 6.30
6 | N[C@H]1CS(=O)(=O)c2cc(F)c(-c3noc(C4(N)COC4)n3)cc2N(Cc2ccc(-c3ccc(C(F)(F)F)cn3)cc2)C1=O [Example 10, (3R)-3-amino-7-[5-(3-aminooxetan-3-yl)-1,2,4-oxadiazol-3-yl]-8-fluoro-1,1-dioxo-5-[[4-[5-(trifluoromethyl)-2-pyridyl]phenyl]methyl]-2,3-dihydro-1λ^6,5-benzothiazepin-4-one] | 133 | 5.72
7 | N[C@H]1CS(=O)(=O)c2cc(F)c(-c3noc(N4CCOC5(CC5)C4)n3)cc2N(Cc2ccc(-c3ccc(C(F)(F)F)cc3)nc2)C1=O [Example 11, (3R)-3-amino-8-fluoro-7-[5-(4-oxa-7-azaspiro[2.5]octan-7-yl)-1,2,4-oxadiazol-3-yl]-1,1-dioxo-5-[[6-[4-(trifluoromethyl)phenyl]-3-pyridyl]methyl]-2,3-dihydro-1λ^6,5-benzothiazepin-4-one] | 136 | 5.73
8 | N[C@H]1CS(=O)(=O)c2cc(F)c(-c3noc(N4CCOC(F)(F)C4)n3)cc2N(Cc2ccc(-c3noc(C(F)(F)F)n3)nc2)C1=O [Example 12, (3R)-3-amino-7-[5-(2,2-difluoromorpholin-4-yl)-1,2,4-oxadiazol-3-yl]-8-fluoro-1,1-dioxo-5-[[6-[5-(trifluoromethyl)-1,2,4-oxadiazol-3-yl]-3-pyridyl]methyl]-2,3-dihydro-1λ^6,5-benzothiazepin-4-one] | 125 | 5.41
9 | N[C@H]1CS(=O)(=O)c2cc(F)c(-c3noc(N4CCOC(F)(F)C4)n3)cc2N(Cc2ccc(-c3ccc(C(F)(F)F)cc3)nc2)C1=O [Example 13, (3R)-3-amino-7-[5-(2,2-difluoromorpholin-4-yl)-1,2,4-oxadiazol-3-yl]-8-fluoro-1,1-dioxo-5-[[6-[4-(trifluoromethyl)phenyl]-3-pyridyl]methyl]-2,3-dihydro-1λ^6,5-benzothiazepin-4-one] | 84 | 5.97
10 | N[C@H]1CS(=O)(=O)c2cc(F)c(-c3noc(N4CCOC5(CC5)C4)n3)cc2N(Cc2ccc(-c3noc(C(F)(F)F)n3)nc2)C1=O [Example 14, (3R)-3-amino-8-fluoro-7-[5-(4-oxa-7-azaspiro[2.5]octan-7-yl)-1,2,4-oxadiazol-3-yl]-1,1-dioxo-5-[[6-[5-(trifluoromethyl)-1,2,4-oxadiazol-3-yl]-3-pyridyl]methyl]-2,3-dihydro-1λ^6,5-benzothiazepin-4-one] | 96 | 5.41
11 | N#CC1(c2nc(-c3cc4c(cc3F)S(=O)(=O)C[C@H](N)C(=O)N4Cc3ccc(-c4noc(C(F)(F)F)n4)cc3)no2)CC1 [Example 16, 1-[3-[(3R)-3-amino-8-fluoro-1,1,4-trioxo-5-[[4-[5-(trifluoromethyl)-1,2,4-oxadiazol-3-yl]phenyl]methyl]-2,3-dihydro-1λ^6,5-benzothiazepin-7-yl]-1,2,4-oxadiazol-5-yl]cyclopropanecarbonitrile] | 228 | 6.94
12 | N#CC1(c2nc(-c3cc4c(cc3F)S(=O)(=O)C[C@H](N)C(=O)N4Cc3ccc(-c4ccc(C(F)(F)F)cn4)cc3)no2)CC1 [Example 17] | 167 | 7.30
13 | N[C@H]1CS(=O)(=O)c2cc(F)c(-c3noc(C4(CO)CCCO4)n3)cc2N(Cc2ccc(-c3noc(C(F)(F)F)n3)cc2)C1=O (stereo partly drawn) [Example 18, (3R)-3-amino-8-fluoro-7-[5-[2-(hydroxymethyl)tetrahydrofuran-2-yl]-1,2,4-oxadiazol-3-yl]-1,1-dioxo-5-[[4-[5-(trifluoromethyl)-1,2,4-oxadiazol-3-yl]phenyl]methyl]-2,3-dihydro-1λ^6,5-benzothiazepin-4-one] | 275 | 6.35
14 | CC(C)(C)c1nnc(-c2ccc(CN3C(=O)[C@@H](N)CS(=O)(=O)c4ccc(-c5nnc(C(C)(C)C)o5)cc43)cc2)o1 [Example 19, (3R)-3-amino-7-(5-tert-butyl-1,3,4-oxadiazol-2-yl)-5-[[4-(5-tert-butyl-1,3,4-oxadiazol-2-yl)phenyl]methyl]-1,1-dioxo-2,3-dihydro-1λ^6,5-benzothiazepin-4-one] | 100 | 5.44
15 | Cc1cc(C)n(-c2ccc(CN3C(=O)[C@@H](N)CS(=O)(=O)c4ccc(-c5nnc(C(C)(C)C)o5)cc43)cc2)n1 [Example 22, (3R)-3-amino-7-(5-tert-butyl-1,3,4-oxadiazol-2-yl)-5-[[4-(3,5-dimethylpyrazol-1-yl)phenyl]methyl]-1,1-dioxo-2,3-dihydro-1λ^6,5-benzothiazepin-4-one] | 69 | 5.41
16 | CC(C)(C)C(N)c1nnc(-c2ccc3c(c2)N(Cc2ccc(-c4noc(C(F)(F)F)n4)cc2)C(=O)[C@@H](N)CS3(=O)=O)o1 (stereo partly drawn) [Example 34, (3R)-3-amino-7-[5-(1-amino-2,2-dimethyl-propyl)-1,3,4-oxadiazol-2-yl]-1,1-dioxo-5-[[4-[5-(trifluoromethyl)-1,2,4-oxadiazol-3-yl]phenyl]methyl]-2,3-dihydro-1λ^6,5-benzothiazepin-4-one] | 67 | 5.93
17 | CC(C#N)c1nnc(-c2ccc3c(c2)N(Cc2ccc(-c4noc(C(F)(F)F)n4)cc2)C(=O)[C@@H](N)CS3(=O)=O)o1 (stereo partly drawn) [Example 35, 2-[5-[(3R)-3-amino-1,1,4-trioxo-5-[[4-[5-(trifluoromethyl)-1,2,4-oxadiazol-3-yl]phenyl]methyl]-2,3-dihydro-1λ^6,5-benzothiazepin-7-yl]-1,3,4-oxadiazol-2-yl]propanenitrile] | 99 | 5.60
18 | COC(F)(c1nnc(-c2ccc3c(c2)N(Cc2ccc(-c4noc(C(F)(F)F)n4)cc2)C(=O)[C@@H](N)CS3(=O)=O)o1)C(F)(F)F (stereo partly drawn) [Example 37, (3R)-3-amino-1,1-dioxo-7-[5-(1,2,2,2-tetrafluoro-1-methoxy-ethyl)-1,3,4-oxadiazol-2-yl]-5-[[4-[5-(trifluoromethyl)-1,2,4-oxadiazol-3-yl]phenyl]methyl]-2,3-dihydro-1λ^6,5-benzothiazepin-4-one] | 173 | 6.52
19 | CC(C)(C#N)c1nnc(-c2ccc3c(c2)N(Cc2ccc(-c4noc(C(F)(F)F)n4)cc2)C(=O)[C@@H](N)CS3(=O)=O)o1 [Example 38, 2-[5-[(3R)-3-amino-1,1,4-trioxo-5-[[4-[5-(trifluoromethyl)-1,2,4-oxadiazol-3-yl]phenyl]methyl]-2,3-dihydro-1λ^6,5-benzothiazepin-7-yl]-1,3,4-oxadiazol-2-yl]-2-methyl-propanenitrile] | 97 | 6.19
20 | N[C@H]1CS(=O)(=O)c2ccc(-c3nnc(C4(N)CCCCC4)o3)cc2N(Cc2ccc(-c3ccc(C(F)(F)F)cn3)cc2)C1=O [Example 41, (3R)-3-amino-7-[5-(1-aminocyclohexyl)-1,3,4-oxadiazol-2-yl]-1,1-dioxo-5-[[4-[5-(trifluoromethyl)-2-pyridyl]phenyl]methyl]-2,3-dihydro-1λ^6,5-benzothiazepin-4-one] | 85 | 6.04
